In the assay the test system is MV-4-11 cells. The experiment in a line: Gene expression microarray analysis (Affymetrix PrimeView) and GSEA. It is filed as cell-based, human. Set-up: RFU PODN (11730768_x_at) / Fold change /veh PODN (11730768_x_at) / RFU LINC00158 (11744669_a_at) / Fold change /veh LINC00158 (11744669_a_at) / RFU DUSP10 (11751237_a_at) / Fold change /veh DUSP10 (11751237_a_at) / RFU ID3 (11757404_x_at) / Fold change /veh ID3 (11757404_x_at) / RFU PLEKHG5 (11737974_s_at) / Fold change /veh PLEKHG5 (11737974_s_at) / RFU LRRC4B (11730491_at) / Fold change /veh LRRC4B (11730491_at) / RFU GIMAP4 (11747438_a_at) / Fold change /veh GIMAP4 (11747438_a_at) / RFU KRT8 (11758183_x_at) / Fold change /veh KRT8 (11758183_x_at) / RFU CNN1 (11734310_a_at) / Fold change /veh CNN1 (11734310_a_at) / RFU VPS37D (11726825_at) / Fold change /veh VPS37D (11726825_at) / RFU C10orf10 (11716522_x_at) / Fold change /veh C10orf10 (11716522_x_at) / RFU KIR2DL2 /// KIR2DL4 /// KIR2DL5A /// KIR2DL5B /// KIR2DS1 /// KIR2DS2 /// KIR2DS3 /// KIR2DS4 /// KIR3DL3 /// KIR3DL3 /// KIR3DS1 (11738374_at) / Fold change /veh KIR2DL2 /// KIR2DL4 /// KIR2DL5A /// KIR2DL5B /// KIR2DS1 /// KIR2DS2 /// KIR2DS3 /// KIR2DS4 /// KIR3DL3 /// KIR3DL3 /// KIR3DS1 (11738374_at) / RFU C1QL1 (11718748_at) / Fold change /veh C1QL1 (11718748_at) / RFU TMPRSS4 (11747572_a_at) / Fold change /veh TMPRSS4 (11747572_a_at) / RFU HAMP (11756126_x_at) / Fold change /veh HAMP (11756126_x_at) / RFU RNFT2 (11725882_a_at) / Fold change /veh RNFT2 (11725882_a_at) / RFU NR4A2 (11747474_a_at) / Fold change /veh NR4A2 (11747474_a_at) / RFU ABCC12 (11746883_a_at) / Fold change /veh ABCC12 (11746883_a_at) / RFU TMEM136 (11760407_x_at) / Fold change /veh TMEM136 (11760407_x_at) / RFU CLDN22 /// WWC2 (11732394_at) / Fold change /veh CLDN22 /// WWC2 (11732394_at) / RFU HLA-DPB1 (11760878_x_at) / Fold change /veh HLA-DPB1 (11760878_x_at) / RFU SPINT1 (11716480_a_at) / Fold change /veh SPINT1 (11716480_a_at) / RFU GAP43 (11754022_s_at) / Fold change /veh GAP43 (11754022_s_at) / RFU A4GNT (11735810_at) / Fold change /veh A4GNT (11735810_at) / RFU PRB3 (11715151_x_at) / Fold change /veh PRB3 (11715151_x_at) / RFU TUBB4B (11761932_at) / Fold change /veh TUBB4B (11761932_at) / RFU CAPN14 (11732068_a_at) / Fold change /veh CAPN14 (11732068_a_at) / RFU TMCC2 (11721928_a_at) / Fold change /veh TMCC2 (11721928_a_at) / RFU IRGQ (11745062_a_at) / Fold change /veh IRGQ (11745062_a_at) / RFU FAM174B (11720279_a_at) / Fold change /veh FAM174B (11720279_a_at) / RFU TMPRSS4 (11748680_a_at) / Fold change /veh TMPRSS4 (11748680_a_at) / RFU FAM212B (11763350_a_at) / Fold change /veh FAM212B (11763350_a_at) / RFU PLEKHG5 (11743358_a_at) / Fold change /veh PLEKHG5 (11743358_a_at) / RFU ZSCAN30 (11745921_a_at) / Fold change /veh ZSCAN30 (11745921_a_at) / RFU CMKLR1 (11741424_a_at) / Fold change /veh CMKLR1 (11741424_a_at) / RFU LOC101060620 /// MAPK8IP1 (11723275_at) / Fold change /veh LOC101060620 /// MAPK8IP1 (11723275_at) / RFU SPTSSB (11747773_x_at) / Fold change /veh SPTSSB (11747773_x_at) / RFU PRSS12 (11739890_at) / Fold change /veh PRSS12 (11739890_at) / RFU BIN1 (11741810_x_at) / Fold change /veh BIN1 (11741810_x_at) / RFU WNT11 (11732464_a_at) / Fold change /veh WNT11 (11732464_a_at) / RFU C10orf10 (11716521_a_at) / Fold change /veh C10orf10 (11716521_a_at) / RFU C5orf56 (11738089_at) / Fold change /veh C5orf56 (11738089_at) / RFU CYB561 (11721691_x_at) / Fold change /veh CYB561 (11721691_x_at) / RFU ANKRD19P (11752326_a_at) / Fold change /veh ANKRD19P (11752326_a_at) / RFU OR2T12 /// OR2T33 /// OR2T8 (11738714_s_at) / Fold change /veh OR2T12 /// OR2T33 /// OR2T8 (11738714_s_at) / RFU VCAN (11748164_a_at) / Fold change /veh VCAN (11748164_a_at) / RFU JSRP1 (11732532_at) / Fold change /veh JSRP1 (11732532_at) / RFU KRTAP10-11 (11738290_x_at) / Fold change /veh KRTAP10-11 (11738290_x_at) / RFU MYO3A (11730013_a_at) / Fold change /veh MYO3A (11730013_a_at) / RFU EBF3 (11725865_a_at) / Fold change /veh EBF3 (11725865_a_at) / RFU CAMK2N1 (11719241_x_at) / Fold change /veh CAMK2N1 (11719241_x_at) / RFU C5orf56 (11738088_a_at) / Fold change /veh C5orf56 (11738088_a_at) / RFU OLFML3 (11715873_a_at) / Fold change /veh OLFML3 (11715873_a_at) / RFU LOC100653217 /// NTM (11731650_a_at) / Fold change /veh LOC100653217 /// NTM (11731650_a_at) / RFU MAPK11 (11762145_a_at) / Fold change /veh MAPK11 (11762145_a_at) / RFU FIZ1 (11724087_x_at) / Fold change /veh FIZ1 (11724087_x_at) / RFU OASL (11726364_x_at) / Fold change /veh OASL (11726364_x_at) / RFU SOX15 (11748057_x_at) / Fold change /veh SOX15 (11748057_x_at) / RFU CD79A (11719716_a_at) / Fold change /veh CD79A (11719716_a_at) / RFU HIST1H1D (11736915_at) / Fold change /veh HIST1H1D (11736915_at) / RFU CASKIN2 (11723855_a_at) / Fold change /veh CASKIN2 (11723855_a_at) / RFU LOC730098 (11760151_x_at) / Fold change /veh LOC730098 (11760151_x_at) / RFU OR4N2 (11742367_at) / Fold change /veh OR4N2 (11742367_at) / RFU PRRT2 (11749266_a_at) / Fold change /veh PRRT2 (11749266_a_at) / RFU SNX32 (11753110_a_at) / Fold change /veh SNX32 (11753110_a_at) / RFU CDHR5 (11726645_a_at) / Fold change /veh CDHR5 (11726645_a_at) / RFU RCAN1 (11760418_a_at) / Fold change /veh RCAN1 (11760418_a_at) / RFU FAM167A (11723789_a_at) / Fold change /veh FAM167A (11723789_a_at) / RFU FAM26E (11764081_at) / Fold change /veh FAM26E (11764081_at) / RFU ISYNA1 (11749810_s_at) / Fold change /veh ISYNA1 (11749810_s_at) / RFU ACY1 (11761880_at) / Fold change /veh ACY1 (11761880_at) / RFU 11764098_at / Fold change /veh 11764098_at / RFU SAMD14 (11745864_x_at) / Fold change /veh SAMD14 (11745864_x_at) / RFU NPB (11741838_a_at) / Fold change /veh NPB (11741838_a_at) / RFU TMPRSS6 (11731388_a_at) / Fold change /veh TMPRSS6 (11731388_a_at) / RFU KRTAP10-2 (11738614_at) / Fold change /veh KRTAP10-2 (11738614_at) / RFU ARHGAP8 /// PRR5-ARHGAP8 (11727945_x_at) / Fold change /veh ARHGAP8 /// PRR5-ARHGAP8 (11727945_x_at) / RFU KRTAP5-7 /// NADSYN1 (11734609_at) / Fold change /veh KRTAP5-7 /// NADSYN1 (11734609_at) / RFU RASL12 (11751679_a_at) / Fold change /veh RASL12 (11751679_a_at) / RFU CDKN2B (11736163_a_at) / Fold change /veh CDKN2B (11736163_a_at) / RFU PRF1 (11729649_at) / Fold change /veh PRF1 (11729649_at) / RFU, ZNF638 /// ZNF638-IT1 / Fold change vs veh, ZNF638 /// ZNF638-IT1 / RFU, PANK3 / Fold change vs veh, PANK3 / RFU, SH3YL1 / Fold change vs veh, SH3YL1 / RFU, ZEB2 / Fold change vs veh, ZEB2 / RFU, NRIP1 / Fold change vs veh, NRIP1 / RFU, PTTG1IP / Fold change vs veh, PTTG1IP / RFU, CAPN2 / Fold change vs veh, CAPN2 / RFU, MED14 / Fold change vs veh, MED14 / RFU, SNORA58 / Fold change vs veh, SNORA58 / RFU, C1orf63 / Fold change vs veh, C1orf63 / RFU, LRRFIP1 / Fold change vs veh, LRRFIP1 / RFU, NDUFAF7 / Fold change vs veh, NDUFAF7 / RFU, SLC12A2 / Fold change vs veh, SLC12A2 / RFU, IBTK / Fold change vs veh, IBTK / RFU, ESF1 / Fold change vs veh, ESF1 / Fold change vs veh, TMEM50B / RFU, TAOK1 / Fold change vs veh, TAOK1 / RFU, ACBD3 / Fold change vs veh, ACBD3 / RFU, TMA16 / Fold change vs veh, TMA16 / RFU, RWDD3 / Fold change vs veh, RWDD3 / RFU, BCAT1 / Fold change vs veh, BCAT1 / RFU, EDEM3 / Fold change vs veh, EDEM3 / RFU, TMEM33 / Fold change vs veh, TMEM33 / RFU, WDR75 / Fold change vs veh, WDR75 / RFU, AHCTF1 / Fold change vs veh, AHCTF1 / RFU, TFRC / Fold change vs veh, TFRC / RFU, ZDHHC17 / Fold change vs veh, ZDHHC17 / RFU, NOM1 / Fold change vs veh, NOM1 / RFU, ARL8B / Fold change vs veh, ARL8B / RFU, ZBTB11 / Fold change vs veh, ZBTB11 / RFU, TAMM41 / Fold change vs veh, TAMM41 / RFU, KIAA1704 /// LOC100996395 / Fold change vs veh, KIAA1704 /// LOC100996395 / RFU, ING1 / Fold change vs veh, ING1 / RFU, TRMT61B / Fold change vs veh, TRMT61B / RFU, FUBP3 / Fold change vs veh, FUBP3 / RFU, TP53 / Fold change vs veh, TP53 / RFU, TNKS2 / Fold change vs veh, TNKS2 / RFU, ZFP14 / Fold change vs veh, ZFP14 / RFU, ACTR2 / Fold change vs veh, ACTR2 / RFU, PPP3R1 / Fold change vs veh, PPP3R1 / RFU, PIK3R1 / Fold change vs veh, PIK3R1 / RFU, HNRNPA1 / Fold change vs veh, HNRNPA1 / RFU, RNF170 / Fold change vs veh, RNF170 / RFU, ZNF28 / Fold change vs veh, ZNF28 / RFU, RNGTT / Fold change vs veh, RNGTT / RFU, OGT / Fold change vs veh, OGT / RFU, BRD1 / Fold change vs veh, BRD1 / RFU, MARS / Fold change vs veh, MARS / RFU, ZNF655 / Fold change vs veh, ZNF655 / RFU, FAHD1 / Fold change vs veh, FAHD1 / RFU, BDP1 / Fold change vs veh, BDP1 / RFU, LRRCC1 / Fold change vs veh, LRRCC1 / RFU, ARID1A / Fold change vs veh, ARID1A / RFU, ZNF146 / Fold change vs veh, ZNF146 / RFU, ZNF330 / Fold change vs veh, ZNF330 / RFU, GPN3 / Fold change vs veh, GPN3 / RFU, C9orf123 / Fold change vs veh, C9orf123 / RFU, N4BP2L2 / Fold change vs veh, N4BP2L2 / RFU, ARFIP1 / Fold change vs veh, ARFIP1 / RFU, FAM179B / Fold change vs veh, FAM179B / RFU, BCL10 / Fold change vs veh, BCL10 / RFU, UHRF1BP1L / Fold change vs veh, UHRF1BP1L / RFU, BET1 / Fold change vs veh, BET1 / RFU, CNOT2 / Fold change vs veh, CNOT2 / RFU, ZNF268 / Fold change vs veh, ZNF268 / Fold change vs veh, ZNF507 / RFU, DGCR2 / Fold change vs veh, DGCR2 / RFU, WDSUB1 / Fold change vs veh, WDSUB1 / Fold change vs veh, HSP90B1 /// MIR3652 / RFU, ADSS / Fold change vs veh, ADSS / RFU, GK / Fold change vs veh, GK / RFU, ZNF148 / Fold change vs veh, ZNF148 / RFU, TAF9 / Fold change vs veh, TAF9 / RFU, SLC1A5 / Fold change vs veh, SLC1A5 / RFU, SLMO2 / Fold change vs veh, SLMO2 / RFU, ABCC4 / Fold change vs veh, ABCC4 / RFU, LOC101060439 /// RAP1B / Fold change vs veh, LOC101060439 /// RAP1B / RFU, RFX7 / Fold change vs veh, RFX7 / RFU, GTPBP10 / Fold change vs veh, GTPBP10 / RFU, CNEP1R1 / Fold change vs veh, CNEP1R1 / RFU, BIVM-ERCC5 /// ERCC5 / Fold change vs veh, BIVM-ERCC5 /// ERCC5 / RFU, ILF3 / Fold change vs veh, ILF3 / RFU 11762660_at / Fold change /veh 11762660_at / RFU VCAN (11757783_s_at) / Fold change /veh VCAN (11757783_s_at) / RFU DDX43 (11728927_at) / Fold change /veh DDX43 (11728927_at) / RFU KRT8 (11758188_x_at) / Fold change /veh KRT8 (11758188_x_at) / RFU NKD1 (11759106_at) / Fold change /veh NKD1 (11759106_at) / RFU SRD5A1 (11742802_a_at) / Fold change /veh SRD5A1 (11742802_a_at) / RFU TPSAB1 /// TPSB2 (11721975_s_at) / Fold change /veh TPSAB1 /// TPSB2 (11721975_s_at) / RFU GSTM3 (11746129_a_at) / Fold change /veh GSTM3 (11746129_a_at) / RFU IL23R (11737362_x_at) / Fold change /veh IL23R (11737362_x_at) / RFU TMEM51 (11727254_a_at) / Fold change /veh TMEM51 (11727254_a_at) / RFU PIWIL2 (11732686_x_at) / Fold change /veh PIWIL2 (11732686_x_at) / RFU ORM1 (11744905_x_at) / Fold change /veh ORM1 (11744905_x_at) / RFU CCDC152 (11743942_at) / Fold change /veh CCDC152 (11743942_at) / RFU ECM1 (11717891_a_at) / Fold change /veh ECM1 (11717891_a_at) / RFU IL23R (11748794_a_at) / Fold change /veh IL23R (11748794_a_at) / RFU TNFAIP8L3 (11732012_x_at) / Fold change /veh TNFAIP8L3 (11732012_x_at) / RFU MBOAT4 (11741988_at) / Fold change /veh MBOAT4 (11741988_at) / RFU 11764193_at / Fold change /veh 11764193_at / RFU TMEM53 (11763286_at) / Fold change /veh TMEM53 (11763286_at) / RFU MAGEB2 (11727129_at) / Fold change /veh MAGEB2 (11727129_at) / RFU TMEM200A (11744735_a_at) / Fold change /veh TMEM200A (11744735_a_at) / RFU CCDC152 (11751479_a_at) / Fold change /veh CCDC152 (11751479_a_at) / RFU FAM211A (11726209_a_at) / Fold change /veh FAM211A (11726209_a_at) / RFU RGS16 (11746705_a_at) / Fold change /veh RGS16 (11746705_a_at) / RFU VCAN (11755009_s_at) / Fold change /veh VCAN (11755009_s_at) / RFU RHOB (11743442_s_at) / Fold change /veh RHOB (11743442_s_at) / RFU RGS16 (11720943_a_at) / Fold change /veh RGS16 (11720943_a_at) / RFU RGS16 (11720944_at) / Fold change /veh RGS16 (11720944_at) / RFU, VPS4B / Fold change vs veh, VPS4B / RFU, CREB1 / Fold change vs veh, CREB1 / RFU, DNAJC13 / Fold change vs veh, DNAJC13 / RFU, GNAQ / Fold change vs veh, GNAQ / RFU, CDK5R1 / Fold change vs veh, CDK5R1 / RFU, ZRANB3 / Fold change vs veh, ZRANB3 / RFU, CUL4A / Fold change vs veh, CUL4A / RFU, CCNY / Fold change vs veh, CCNY / RFU, UFL1 / Fold change vs veh, UFL1 / RFU, COG3 / Fold change vs veh, COG3 / RFU, DIAPH2 / Fold change vs veh, DIAPH2 / RFU, SKA2 / Fold change vs veh, SKA2 / RFU, AFF3 / Fold change vs veh, AFF3 / RFU, LMF1 / Fold change vs veh, LMF1 / RFU, IPO11 / Fold change vs veh, IPO11 / RFU, DFFB / Fold change vs veh, DFFB / RFU, FOXP1 / Fold change vs veh, FOXP1 / RFU, CARD8 / Fold change vs veh, CARD8 / RFU, STRN3 / Fold change vs veh, STRN3 / RFU, ADK / Fold change vs veh, ADK / RFU, RASSF2 / Fold change vs veh, RASSF2 / RFU, WIPF1 / Fold change vs veh, WIPF1 / RFU, LARP1B / Fold change vs veh, LARP1B / RFU, RASA1 / Fold change vs veh, RASA1 / RFU, RB1 / Fold change vs veh, RB1 / RFU, PPFIA1 / Fold change vs veh, PPFIA1 / RFU, MAT2A / Fold change vs veh, MAT2A / RFU, CCT5 / Fold change vs veh, CCT5 / RFU, WDR92 / Fold change vs veh, WDR92 / RFU, CUX1 / Fold change vs veh, CUX1 / RFU, TTC7A / Fold change vs veh, TTC7A / RFU, TMEM135 / Fold change vs veh, TMEM135 / RFU, DEPTOR / Fold change vs veh, DEPTOR / RFU, CPM / Fold change vs veh, CPM / RFU, DNAJB6 / Fold change vs veh, DNAJB6 / RFU, CACNA2D3 / Fold change vs veh, CACNA2D3 / RFU, DTX4 / Fold change vs veh, DTX4 / RFU, TFCP2 / Fold change vs veh, TFCP2 / RFU, GMCL1 /// GMCL1P1 / Fold change vs veh, GMCL1 /// GMCL1P1 / RFU, AEBP2 / Fold change vs veh, AEBP2 / RFU, SNHG1 /// SNORD22 /// SNORD25 /// SNORD26 /// SNORD27 /// SNORD28 /// SNORD29 /// SNORD31 / Fold change vs veh, SNHG1 /// SNORD22 /// SNORD25 /// SNORD26 /// SNORD27 /// SNORD28 /// SNORD29 /// SNORD31 / Fold change (Aza/veh), C12orf56 (ProbeSet 11735607_a_at) / Fold change (ACY-1035/veh), C12orf56 (ProbeSet 11735607_a_at) / Fold change (Aza/veh), FGFR1OP (ProbeSet 11751329_s_at) / Fold change (ACY-1035/veh), FGFR1OP (ProbeSet 11751329_s_at) / Fold change (Aza/veh), VPS36 (ProbeSet 11739960_a_at) / Fold change (ACY-1035/veh), VPS36 (ProbeSet 11739960_a_at) / RFU SYPL1 (11715823_x_at) / Fold change /veh SYPL1 (11715823_x_at) / RFU IGFBP7 (11715501_s_at) / Fold change /veh IGFBP7 (11715501_s_at) / RFU REEP3 (11722064_at) / Fold change /veh REEP3 (11722064_at) / RFU IGLL1 (11728026_x_at) / Fold change /veh IGLL1 (11728026_x_at): dose or concentration left out as unconfirmed. Conditions: MV-4-11 cells, 48 hours.

Molecules are shown by their SMILES.

Regarding `Nc1ncn([C@@H]2O[C@H](CO)[C@@H](O)[C@H]2O)c(=O)n1` [azacitidine], the “RFU VCAN (11757783_s_at)” value came to 10.94 RFU.

Values taken from article PMC5218480 (PLoS ONE, 2017).
